In patent US20220144838A1, “Compounds as Inhibitors of Macrophage Migration Inhibitory Factor” (NANJING IMMUNOPHAGE BIOTECH CO., LTD., priority 2019, published 2022):

Molecular target: T1, MIF (Homo sapiens, UniProt P14174)
T1 sequence (P14174 2-115 limits assumed): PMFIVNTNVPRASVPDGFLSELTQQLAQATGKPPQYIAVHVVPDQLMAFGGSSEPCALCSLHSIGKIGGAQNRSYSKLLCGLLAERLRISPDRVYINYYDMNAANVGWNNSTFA
Test: MIF tautomerase assay using pHPP as substrate
Format: biochemical
Details: inhibition of the MIF enzyme in vitro; mean of multiple test results; read-out: Tautomerase Inhibition pIC50 (converted)
Protocol: Tautomerase Assay Using pHPP as Substrate
This assay measured MIF's tautomerase activity in a cell-free system and was based on the determination of initial rates of the MIF-catalyzed conversion of the ketonic into the enolic tautomer of pHPP. This was achieved by spectrophotometric quantification of the complex between borate and the product of the reaction (enolic pHPP). The substrate was prepared by conversion of the enolic pHPP into its ketonic form. To achieve this, 0.5 M pHPP in methanol was diluted 10-fold with 50 mM sodium acetate buffer at pH 6.0, and then the suspension was shaken for 24 h at room temperature in darkness, and finally stored at 4° C. for not more than 1 week, with 5 min sonication being recommended before use.
Assays were performed in small-volume clear-bottom black 96 or 384-well polystyrene plates (Greiner Bio-One). First, 2 μL of the enzyme solution containing 6 nM of MIF in DPBS, 0.025% w/v BSA, and 300 μM CHAPS was dispensed onto sample and negative control wells using Multidrop Combi with metallic tip cassettes (Thermo Fisher Scientific) previously treated with Sigmacote. Then, 2 μL of the same buffer without MIF was dispensed onto positive control wells. The reaction was started by addition of the following to all wells: 2 μL of substrate solution containing 3 mM ketonic pHPP in 200 mM boric acid, 25 mM sodium phosphate, 0.025% w/v BSA, and 300 μM CHAPS at pH 6.0. In order to remove bubbles, the plate was centrifuged in an Allegra 25R centrifuge (Beckman Coulter, Inc., Brea, Calif.) at 1000 rpm for 2 min at room temperature. Then, the plate was read in an EnVision. Final concentrations of enzyme and substrate were 3 nM and 1.5 mM, respectively. Initial rates were calculated for each well as the slope of the absorbance progress curve.
All exemplified compounds (Examples 1-230) were tested in the MIF tautomerase assay or a similar assay described above. The data mentioned below represents a mean pIC50 value of multiple test results. It is understood that the data illustrated below may have reasonable variation depending on the specific conditions and procedures used by the person conducting the testing.

Compound | IC50 [nM]
Nc1nc(N2CCC(O)(c3ccc(O)cc3)CC2)nc2c1ncn2-c1cccnc1 [Example 208, 1-(6-amino-9-(pyridin-3-yl)-9H-purin-2-yl)-4-(4-hydroxyphenyl)piperidin-4-ol] | 100 to 977
Oc1ccc(N2CCN(c3nc(-n4ncc5ccccc54)c4ncn(CCc5nnn[nH]5)c4n3)CC2)cc1 [Example 117, 4-(4-(9-(2-(1H-tetrazol-5-yl)ethyl)-6-(1H-indazol-1-yl)-9H-purin-2-yl)piperazin-1-yl)phenol] | 100 to 977
Oc1ccc(N2CCN(c3nc(N4C[C@H](O)[C@@H](O)C4)c4ncn(-c5ccncc5)c4n3)CC2)cc1 [Example 171, (3S,4S)-1-(2-(4-(4-hydroxyphenyl)piperazin-1-yl)-9-(pyridin-4-yl)-9H-purin-6-yl)pyrrolidine-3,4-diol] | 10 to 97.7
O=C(O)Cn1cnc2c(-n3nnc4c(C(=O)O)cccc43)nc(N3CCN(c4ccc(O)cc4)CC3)nc21 [Example 122, 1-(9-(carboxymethyl)-2-(4-(4-hydroxyphenyl)piperazin-1-yl)-9H-purin-6-yl)-1H-benzo[d][1,2,3]triazole-4-carboxylic acid] | 10 to 97.7
Cc1nc(N2CCN(c3ccc(O)cc3)CC2)nc2c1ncn2-c1cccc(O)c1Cl [Example 37, 2-chloro-3-(2-(4-(4-hydroxyphenyl)piperazin-1-yl)-6-methyl-9H-purin-9-yl)phenol] | 1000 to 9770
Nc1nc(N2CCC(c3ccc(O)cc3)CC2)nc2c1ncn2-c1ccncc1 [Example 157, 4-(1-(6-amino-9-(pyridin-4-yl)-9H-purin-2-yl)piperidin-4-yl)phenol] | 10 to 97.7
Cc1cncc(-n2cnc3c(C)nc(N4CCN(c5ccc(O)cc5)CC4)nc32)c1 [Example 38, 4-(4-(6-methyl-9-(5-methylpyridin-3-yl)-9H-purin-2-yl)piperazin-1-yl)phenol] | 1000 to 9770
CN(c1ccncc1)c1nc(N2CCC(O)(c3ccc(O)cc3)CC2)nc2[nH]cnc12 [Example 220, 4-(4-hydroxyphenyl)-1-(6-(methyl(pyridin-4-yl)amino)-9H-purin-2-yl)piperidin-4-ol] | > 10000
COc1ncccc1-n1cnc2c(N)nc(N3CCN(c4ccc(O)cc4)CC3)nc21 [Example 79, 4-(4-(6-amino-9-(2-methoxypyridin-3-yl)-9H-purin-2-yl)piperazin-1-yl)phenol] | > 10000
CCC(C(=O)O)n1cnc2c(-n3ncc4ccccc43)nc(N3CCN(c4ccc(O)cn4)CC3)nc21 (stereo not drawn) [Example 142, 2-(2-(4-(5-hydroxypyridin-2-yl)piperazin-1-yl)-6-(1H-indazol-1-yl)-9H-purin-9-yl)butanoic acid] | 10 to 97.7
Nc1nc(N2CC=C(c3ccc(O)cc3)CC2)nc2c1ncn2-c1ccncc1 [Example 156, 4-(1-(6-amino-9-(pyridin-4-yl)-9H-purin-2-yl)-1,2,3,6-tetrahydropyridin-4-yl)phenol] | > 10000
O=C(O)C1CCN(c2nc(N3CCN(c4ccc(O)cc4)CC3)nc3c2ncn3-c2ccncc2)C1 (stereo not drawn) [Example 164, 1-(2-(4-(4-hydroxyphenyl)piperazin-1-yl)-9-(pyridin-4-yl)-9H-purin-6-yl)pyrrolidine-3-carboxylic acid] | 10 to 97.7
NC(=O)c1ccc(N2CCN(c3nc(N)c4ncn(-c5ccncc5)c4n3)CC2)nc1 [Example 194, 6-(4-(6-amino-9-(pyridin-4-yl)-9H-purin-2-yl)piperazin-1-yl)nicotinamide] | > 10000
O=C(O)Cn1cnc2nc(N3CCN(c4ccc(O)cn4)CC3)nc(-n3ncc4ccccc43)c21 [Example 22, 2-(2-(4-(5-hydroxypyridin-2-yl)piperazin-1-yl)-6-(1H-indazol-1-yl)-7H-purin-7-yl)acetic acid] | 1000 to 9770
CS(=O)(=O)NC(=O)Cn1cnc2c(-n3ncc4ccccc43)nc(N3CCN(c4ccc(O)cc4)CC3)nc21 [Example 57, 2-(2-(4-(4-hydroxyphenyl)piperazin-1-yl)-6-(1H-indazol-1-yl)-9H-purin-9-yl)-N-(methylsulfonyl)acetamide] | 10 to 97.7
O=C(O)CCCCn1cnc2c(-n3ncc4ccccc43)nc(N3CCC(O)(c4ccc(O)cc4)CC3)nc21 [Example 217, 5-(2-(4-hydroxy-4-(4-hydroxyphenyl)piperidin-1-yl)-6-(1H-indazol-1-yl)-9H-purin-9-yl)pentanoic acid] | 10 to 97.7
Nc1nc(N2CCC(O)(c3ccc(F)cc3)CC2)nc2c1ncn2-c1cccnc1 [Example 209, 1-(6-amino-9-(pyridin-3-yl)-9H-purin-2-yl)-4-(4-fluorophenyl)piperidin-4-ol] | 1000 to 9770

Compound | IC50 [nM]
NCCn1cnc2c(-n3ncc4ccccc43)nc(N3CCN(c4ccc(O)cc4)CC3)nc21 [Example 137, 4-(4-(9-(2-aminoethyl)-6-(1H-indazol-1-yl)-9H-purin-2-yl)piperazin-1-yl)phenol] | 1000 to 9770
Nc1nc(N2CCN(c3ccc(O)cc3)CC2)nc2c1ncn2-c1ccccc1 [Example 66, 4-(4-(6-amino-9-phenyl-9H-purin-2-yl)piperazin-1-yl)phenol] | 1000 to 9770
O=C(Cn1cnc2c(-n3ncc4ccccc43)nc(N3CCN(c4ccc(O)cc4)CC3)nc21)NS(=O)(=O)Cc1ccccc1 [Example 98, N-(benzylsulfonyl)-2-(2-(4-(4-hydroxyphenyl)piperazin-1-yl)-6-(1H-indazol-1-yl)-9H-purin-9-yl)acetamide] | 100 to 977
Nc1nc(N2CCC(O)(c3ccccc3)CC2)nc2c1ncn2-c1ccncc1 [Example 202, 1-(6-amino-9-(pyridin-4-yl)-9H-purin-2-yl)-4-phenylpiperidin-4-ol] | > 10000
Nc1nc(N2CCN(c3ccc(O)cn3)CC2)nc2c1ccn2-c1ccncc1 [Example 230, 6-(4-(4-amino-7-(pyridin-4-yl)-7H-pyrrolo[2,3-d]pyrimidin-2-yl)piperazin-1-yl)pyridin-3-ol] | 1000 to 9770
Cc1nc(N2CCN(c3ccc(O)cc3)CC2)nc2c1ncn2-c1cccnc1 [Example 59, 4-(4-(6-methyl-9-(pyridin-3-yl)-9H-purin-2-yl)piperazin-1-yl)phenol] | 100 to 977
O=C(O)Cn1cnc2c(N3Cc4ccccc4C3=O)nc(N3CCN(c4ccc(O)cc4)CC3)nc21 [Example 119, 2-(2-(4-(4-hydroxyphenyl)piperazin-1-yl)-6-(1-oxoisoindolin-2-yl)-9H-purin-9-yl)acetic acid] | 100 to 977
OCCn1cnc2c(-n3ncc4ccccc43)nc(N3CC=C(c4ccc(O)cc4)CC3)nc21 [Example 159, 4-(1-(9-(2-hydroxyethyl)-6-(1H-indazol-1-yl)-9H-purin-2-yl)-1,2,3,6-tetrahydropyridin-4-yl)phenol] | > 10000
OCCCn1cnc2c(N3CCc4ccccc43)nc(N3CCN(c4ccc(O)cc4)CC3)nc21 [Example 7, 4-(4-(9-(3-hydroxypropyl)-6-(indolin-1-yl)-9H-purin-2-yl)piperazin-1-yl)phenol] | 1000 to 9770
O=C(O)CCCn1cnc2c(-n3ncc4ccccc43)nc(N3CCN(c4ccc(O)cc4)CC3)nc21 [Example 146, 4-(2-(4-(4-hydroxyphenyl)piperazin-1-yl)-6-(1H-indazol-1-yl)-9H-purin-9-yl)butanoic acid] | 10 to 97.7
O=C(O)Cn1cnc2c(N3Cc4ccccc4C3=O)nc(N3Cc4ccccc4C3=O)nc21 [Example 27, 2-(2,6-bis(1-oxoisoindolin-2-yl)-9H-purin-9-yl)acetic acid] | > 10000
O=C(O)Cn1cnc2c(-n3nc(-c4nnn[nH]4)c4ccccc43)nc(N3CCN(c4ccc(O)cc4)CC3)nc21 [Example 135] | 10 to 97.7
Nc1nc(N2CCC(O)(c3ccc(F)cc3)CC2)nc2c1ncn2-c1ccncc1 [Example 210, 1-(6-amino-9-(pyridin-4-yl)-9H-purin-2-yl)-4-(4-fluorophenyl)piperidin-4-ol] | 1000 to 9770
O=C(O)Cn1cnc2c(-c3ccnc4[nH]ccc34)nc(N3CCN(c4ccc(O)cc4)CC3)nc21 [Example 35, 2-(2-(4-(4-hydroxyphenyl)piperazin-1-yl)-6-(1H-pyrrolo[2,3-b]pyridin-4-yl)-9H-purin-9-yl)acetic acid] | 100 to 977
O=C1Cc2ccccc2N1c1nc(N2CCN(c3ccc(O)cc3)CC2)nc2c1ncn2CCO [Example 2, 1-(9-(2-hydroxyethyl)-2-(4-(4-hydroxyphenyl)piperazin-1-yl)-9H-purin-6-yl)indolin-2-one] | 100 to 977
Cn1cc(-n2cnc3c(N)nc(N4CCN(c5ccc(O)cc5)CC4)nc32)cn1 [Example 88, 4-(4-(6-amino-9-(1-methyl-1H-pyrazol-4-yl)-9H-purin-2-yl)piperazin-1-yl)phenol] | 1000 to 9770
